# Source: patent US11351218B2, “Composition for preventing or treating glioblastoma comprising Platycodon grandiflorum A. De Candolle, Scutellaria baicalensis, Phellodendron amurense Ruprecht or Rubus coreanus” (University-Industry Cooperation Group of Kyung Hee …, priority 2019, dated 2022)
# Residues, ends and D or L forms follow the SMILES beside them. *: point of attachment. Cbz = O=C(OCc1ccccc1)*; CH2F = FC*
# How the values were obtained:
# U87MG and U373MG cells [1] = assay: Clonogenic assay, GBM cells; type: cell-based, human; conditions: co-treatment MβCD 100 μM with PD 10 μM or 20 μM, 7 days
# Method: FIGS. 19A and 19B show the results that MβCD restores PD-mediated decrease in cell viability. […] Data shown represent the means of quintuplicate measurements which were repeated three times. The results are presented as a percentage of control (means±SD).
# Approximately 2×10^3 cells were seeded into each 6-well plate and then treated as described in FIG. 19. After 7 days, the cells were washed with PBS and stained with 0.5% crystal violet.
# Furthermore, as can be confirmed in FIG. 19B, a colony formation assay was performed to confirm the effects of MβCD on PD-mediated GBM cell death.
# U87MG and U373MG cells [2] = assay: WST1 cell viability assay, GBM cells; type: cell-based, human
# Method: FIGS. 6A and 6B show the results that PD induces a decrease in cell viability and vacuole formation. […] Data shown represent the means of quintuplicate measurements which were repeated three times. The results are presented as a percentage of control (means±SD).
# Cell cytotoxicity was assessed by WST1 assay. U87 and U373 cells were each seeded in a 96-well plate (5×10^3 cells/well) and treated with different concentrations of platycodin D (PD). Then, cells were incubated with a WST1 reagent (Dogen, Seoul, Korea) for 2 hours before reading the plate. Absorbance was measured at 450 nm using an ELISA reader (Versa Max, Molecular Devices, Sunnyvale, Calif., USA).
# cathepsin B and D = assay: Immunoblot of cathepsin B and D processing in GBM cells; type: cell-based, human; conditions: addition of MβCD 100 μM to PD 10 μM-treated cells
# Method: Immunoblot analyses for the processing of endogenous CTSB and CTSD are shown (upper, immature form/lower, mature form of CTSB and CTSD). GAPDH was used as a loading control.
# (§1) Cells treated with the concentrations and materials described in FIGS. 1-3B, 7, 8, 10, 13, 16, 18, and 20 were lysed in buffer containing 20 mM Tris-HCl (pH 7.5), 150 mM NaCl, 1 mM EDTA, 1 mM Na2EDTA, 1 mM EGTA, 1% NP-40, 1% sodium deoxycholate, 1 mM Na3VO4, 1 mM MPI, 1 mM PMSF, and PI cocktails for 15 to 20 minutes on ice. Cell lysates were separated by SDS-PAGE and transferred to nitrocellulose membranes. Immunodetection was performed with the following primary antibodies: rabbit anti-LC3B, rabbit anti-cathepsin B, rabbit-anti GAPDH (Cell Signaling Technology, Danvers, Mass.), mouse anti-SQSTM1/p62, and goat anti-cathepsin D (Santa CruzKPL, Gaithersburg, Md., USA) were incubated at room temperature for 1 hour. The protein bands were detected with ECL western Blotting Substrate (Thermo Fisher Scientific, Waltham, Mass., USA).
# To confirm whether PD functions as an autophagy inhibitor, the effects of PD on lysosomal proteases, cathepsin B and D, were examined Autophagy is a lysosome-mediated and self-degradative process that requires lysosomal cysteine proteases known as cathepsins. Since pro-cathepsins are cleaved into a mature form in lysosomes, the 33 kD active cleaved form of cathepsins has been commonly used as a marker for lysosomal activity. As can be confirmed in FIG. 13, while the mature forms of cathepsin B and D proteins were decreased, immature forms of those protein were increased after PD treatment in U87MG and U373MG cells, implying that PD suppresses a lysosomal function by downregulating the lysosomal proteolytic activity.
# U87MG and U373MG cells [3] = assay: LysoTracker assay with GFP-LC3B (autophagosome-lysosome fusion) in GBM cells; type: cell-based, human; conditions: co-treatment MβCD 100 μM and PD 10 μM, 48 hours
# From the text: […] Then, cells were stained with LysoTracker (red) and DAPI (blue). The merged images show an overlap between GFP-LC3 and LysoTracker (yellow). The panels on the right are higher-magnification images of the boxed regions.
# Cultured cells seeded in plates with microscope coverslips were transfected with a pGFP-LC3B plasmid using Lipofectamine 3000 (Thermo Fisher Scientific) according to the manufacturer's instructions. After the transfection, the cells were fixed with 4% paraformaldehyde (PFA) in phosphate-buffered saline (PBS) at room temperature for 10 minutes. The images were examined under a laser confocal microscope (Zeiss, Oberkochen, Baden-Wurttemberg, Germany).
# To stain acidic compartments, 50 nM LysoTrackerRedDND-99 (Thermo Fisher Scientific) was added to a medium at 37° C. with 5% CO2 for 30 minutes prior to fixation. The nuclei were labeled with 4,6-diamidino-2-phenylindole (DAPI, Sigma). The slides were finally mounted using a Faramount mounting medium (Dako, Glostrup, Denmark). The images were examined under a Zeiss laser confocal microscope.
# Experimental Result 11. PD Blocks Fusion of Autophagosomes with Lysosomes. Since p62 was accumulated in autophagosomes by PD treatment, it was speculated that PD may cause the lysosomal dysfunction like bafilomycin A1, which inhibits vacuolar H^+-ATPase (V-ATPase)-dependent lysosomal acidification and blocks autophagosome-lysosome fusion. Thus, the PD-treated cells with LysoTracker Red, which is a marker for acidic compartment including lysosomes was stained to examine the colocalization of GFP-LC3B.
# U87MG and U373MG cells [4] = assay: Cholesterol cell-based detection assay (filipin III staining) in GBM cells; parameters: species or system human
# Method: (§2) FIGS. 15A and 15B show the results that PD promotes accumulation of cholesterol in lysosomes. Cells were treated with DMSO, PD (10 μM), or U18666a (1 μM) for 24 hours. […] Total cholesterol levels are expressed in cholesterol (μg) per protein (mg) of cell lysate and are shown as means±SD from two independent experiments.
# Cells grown on coverslips were treated with the materials. Then, the cells were fixed with 4% PFA at room temperature for 10 minutes. The solution of Filipin III (Cayman) was added for staining of […] cholesterol and the samples were incubated in a dark room for 30 minutes. The images were examined under a Zeiss laser confocal microscope.
# The present inventors concluded that PD inhibits the maturation of autophagosome into autolysosomes by inhibiting lysosomal degradation and an autophagosome-lysosome fusion in GBM cells. […] To examine whether the defect in the autophagosome-lysosome fusion by PD is due to altered intracellular cholesterol levels, the PD-treated GBM cells were stained with filipin-III, which is a fluorescent dye that binds to cholesterol. […] As can be confirmed in FIG. 14A, this filipin-III staining pattern is very similar to that found in GBM cells treated with U18666A, implying that PD blocks cholesterol release from lysosome and accumulates cholesterol in lysosomes.
# LC3B and SQSTM1/p62 = assay: Immunoblot of LC3B and SQSTM1/p62 in GBM cells (U87MG and U373MG); type: cell-based, human; conditions: combined treatment MβCD 100 μM and PD 10 μM
# Method: FIGS. 2A and 2B show the results that an extract of Platycodon grandiflorum (PG) increases the levels of LC3-II and p62. […] GAPDH was used as a loading control.
# FIGS. 3A to 3C show the results that PD inhibits autophagic flux in GBM cells. […] The expression of LC3B and SQSTM1 was confirmed by immunoblot analysis. […] GAPDH was used as a loading control.
# The human glioma cell lines, U87MG and U373MG, were cultured respectively in RPMI-1640 (Welgene) and DMEM (Welgene, Daegu, Korea) supplemented with 10% fetal bovine serum (FBS, JR Scientific) and 1% antibiotics (Ab, Welgene). All cultures were maintained at 37° C. in a humidified incubator containing 5% CO2.
# as §1
# Ax1 = assay: Western blot of Ax1 expression after natural compounds, U87MG and U373MG cells; type: cell-based, human; conditions: varying concentrations, 48 hours
# Method: Cells were washed with PBS and dissolved using a RIPA buffer (150 mM NaCl, 1% NP-40, 0.5% DOC, 0.1% SDS, 50 mM Tris (pH 8.0), 1 mM EDTA, 1 mM PMSF, 1 mM NaF, 1 mM Na3PO4, 1 μL aprotinin, leupeptin, and pepstatin), and proteins were isolated by centrifugation at 3,000× g for 20 minutes. An equal amount (20 μg) of each of the proteins was separated by 10% sodium dodecyl sulfate-polyacrylamide gel electrophoresis (SDS-PAGE) and the proteins separated using the Trans-blot unit were transferred to a nitrocellulose (NC) membrane. The membrane to which proteins were transferred was blocked with 5% non-fat dry milk (Tris buffered saline (TBS-T) containing 0.1% Tween-20) at room temperature for 1 hour, and primary antibodies, which were diluted at a 1:1,000 concentration, were allowed to react the proteins at 4° C. for 16 hours. After washing with PBS, the resultant was allowed to react with secondary antibodies, which were diluted at a 1:5,000 concentration, at room temperature for 1 hour. A Pierce ECL Western Blotting Substrate, which also underwent a washing process, was coated onto the membrane and allowed to react in a dark room with a film, and thereby, specific protein bands were confirmed. […]
# U87MG and U373MG cells [5] = assay: BODIPY FL LDL uptake assay, GBM cells; type: cell-based, human; conditions: U18 1 μM 24 hours, BODIPY FL LDL 1 hour
# Method: (§3) Cells were treated with DMSO, PD (10 μM), or U18 (1 μM) for 24 hours and subsequently loaded with BODIPY™ FL LDL. BODIPY-LDL uptake was visualized by confocal microscopy. Nuclei were stained with DAPI (blue). Quantification shown on the right graph represents a relative fold change from three independent experiments±SD.
# (§4) Cells seeded on coverslips were treated with the materials and then the culture medium was replaced with BODIPY™ FL LDL (Thermo Fisher Scientific) at a working concentration of 5 μg/mL in a medium. The cells were additionally incubated at 37° C. for 1 hour. The degree of LDL uptake was measured using a Zeiss laser confocal microscope.
# (§5) Based on the previous study results of the present inventors that PD increases cell surface LDLR expression and accumulate cholesterol within lysosomes, whether PD can increase the uptake of exogenous LDL was examined Cells pretreated with PD or U18666A were incubated with BODIPY FL-labeled LDL particles for 1 hour and the LDL uptake was observed by a confocal microscope. Upon analysis of these cells, it was observed that PD caused about a 6-fold increase in LDL uptake and it was a level similar to that detected in the U18666A-treated cells.
# cell-surface LDLR [6] = assay: Cell surface LDLR analysis by flow cytometry, GBM cells; type: cell-based, human; conditions: PD 10 μM or U18666a 1 μM, 24 hours
# Method: (§6) FIGS. 16A to 16D show the results that PD increases the expression of LDLR on cell surfaces in GBM cells. […] GAPDH was used as a loading control. […] GAPDH was used as a loading control.
# (§7) Cells treated as described in FIG. 16 were separated from plates and resuspended in PBS. After washing with 1% BSA in PBS, the cells were incubated with a primary antibody against human LDLR (Abcam) for 30 minutes. Then, the cells were washed before incubation with an Alexa-Fluor 488-conjugated secondary antibody (Invitrogen) for 30 minutes. The stained cells were washed and resuspended. Fluorescence was analyzed by a FACScalibur flow cytometer (Becton Dickinson, San Jose, Calif., USA) using CellQuest™ software.
# (§8) Brain is the most cholesterol-rich organ of the body, containing about 20% of total body cholesterol. […] As can be confirmed in FIG. 16A, in consistent with these reports, the LDLR protein level was markedly elevated in U87MG and U373MG cells relative to normal human astrocytes. […] Then, the cell surface expression of LDLR was confirmed by flow cytometry.
# cell-surface LDLR [7] = assay: Cell surface LDLR analysis by flow cytometry, normal astrocytes; type: cell-based, human; conditions: PD 10 μM or U18666a 1 μM, 24 hours
# Method: as §6, §7, §8
# LDLR = assay: Immunoblot of LDLR in U87MG, U373MG cells and normal astrocytes; type: cell-based, human; conditions: PD 5 μM and 10 μM or U18666a 1 μM, 24 hours; U87MG, U373MG and normal astrocytes
# Method: as §6, §1, §8
# U87MG and U373MG cells [8] = assay: Cholesterol measurement (total cholesterol assay kit) in GBM cells; type: cell-based, human; conditions: PD 10 μM or U18666a 1 μM, 24 hours
# Method: as §2
# Cells treated as described above were processed using a total cholesterol assay kit (STA384, Cell Biolabs) according to the manufacterer's instructions. Cholesterol esters and free cholesterol were quantified by homogenizing 10^6 cells extracted from a 200 μL mixture of chloroform: isopropanol: NP-40 (7:11:0.1). After centrifugation of the extract at 15,000× g for 10 minutes, the organic phase was collected and evaporated at 50° C. The extract was resuspended in 200 μL of a 1× cholesterol assay diluent prior to analysis. The colorimetric signal was analyzed using an ELISA reader (Versa Max, Molecular Devices, Sunnyvale, Calif., USA) at 540 nm. Cellular cholesterol results were reported as μg of cholesterol per mg of cell protein.
# normal astrocytes = assay: BODIPY FL LDL uptake assay, normal astrocytes; type: cell-based, human; conditions: PD 10 μM or U18 1 μM, 24 hours
# Method: as §3, §4, §5
molecule,measurement,setting,value
"methyl β-cyclodextrin [MβCD, reference compound]",colony-forming ability,U87MG and U373MG cells [1],almost completely recovered
same,viability of GBM cells,"U87MG and U373MG cells [2]; combined treatment MβCD 100 μM and PD 10 μM, 72 hours",significantly restored the viability
same,activity of cathepsin B,cathepsin B and D,recovered activity
same,colocalization of GFP-LC3B puncta with LysoTracker Red fluorescence,U87MG and U373MG cells [3],remarkable increase
same,accumulated cholesterol in lysosomes,"U87MG and U373MG cells [4]; PD 10 μM 24 hours, then MβCD 100 μM 48 hours",successfully depleted
same,changes in LC3-II and p62 levels increased by PD alone,LC3B and SQSTM1/p62,almost completely restored
"COC(=O)C[C@H](NC(=O)[C@H](C)NC(=O)[C@@H](NC(=O)OCc1ccccc1)C(C)C)C(=O)CF [z-VAD-fmk, reference compound] (Cbz-Val-Ala-Asp(OMe)-CH2F)","cell viability, co-treatment vs PD-alone","U87MG and U373MG cells [2]; z-VAD-fmk 50 μM with PD 10 μM and 20 μM, 48 hours",little impact
O=C(O)[C@H]1O[C@@H](Oc2cc3oc(-c4ccccc4)cc(=O)c3c(O)c2O)[C@H](O)[C@@H](O)[C@@H]1O [baicalin],expression of Ax1,Ax1,reduced the expression of Ax1
"CCN(CC)CCO[C@H]1CC[C@@]2(C)C(=CC[C@@H]3[C@@H]2CC[C@]2(C)C(=O)CC[C@@H]32)C1 [U18666A, reference compound]",LDL uptake level compared with PD,U87MG and U373MG cells [5],similar
same,cell surface expression of LDLR,cell-surface LDLR [6],shift of the FL-1 histogram peak toward right
same,changes in peak shift (cell surface LDLR),cell-surface LDLR [7],very negligible
same,cellular cholesterol distribution (filipin-III staining),"U87MG and U373MG cells [4]; PD 10 μM or U18666a 1 μM, 24 hours",very similar
same,LDLR expression,LDLR,increased the LDLR expression
same,free cholesterol levels,U87MG and U373MG cells [8],significant increase
same,LDL uptake,normal astrocytes,less effective
